Assay results published in publication PMC10449633 (Nature Chemical Biology, 2023).
Numbered stars: 1 amine (or outer) side, 2 acyl side, 3 side chain; on linkers, the order of the positions; unused ones are H or OH. Square brackets hold non-standard residues; d marks the D form. Peptide text beside a SMILES is read from it. ξ: configuration not given here. X1 = CN(C(Cc1cn(Cc2ccc(Br)cc2)c2ccccc12)C(=O)[*:2])[*:1]; ξAla(CF3) = NC(CC(F)(F)F)C(=O)O; X2 = N#CCCC(O[*:1])C(=O)[*:2]; NMeL = CN[CH](CC(C)C)C(=O)O; NMeA = CN[CH](C)C(=O)O

Test system: SARS-CoV-2 spike protein
Format: cell-based

## CC(C)CC1NC(=O)C(Cc2cn(Cc3ccc(Br)cc3)c3ccccc23)N(C)C(=O)C(CC(F)(F)F)NC(=O)C(CC(C)C)N(C)C(=O)C(CC(F)(F)F)NC(=O)C(CCC#N)OC(=O)C(C)N(C)C1=O (stereo not shown) [KZR-8445] (cyclo([X1]L[NMeA][X2][ξAla(CF3)][NMeL][ξAla(CF3)]); configuration not given here)
  biogenesis of the Spike protein: inhibits
